The values below are quoted from earlier work in patent US10172867B2, “Afobazole nanoparticles formulation for enhanced therapeutics” (University of South Florida, priority 2014, dated 2019).

Molecules are shown by their SMILES.

In one data set the test system is σ-1 receptor. Conditions: Cuevas et al., 2011.
The target in another data set is σ-2 receptor (Homo sapiens, UniProt Q5BJF2). Conditions: Cuevas et al., 2011.
A further data set concerns muscarinic receptors. The conditions noted are these: Seredenin et al., 2009.
The subject of another data set is in vitro ischemia model. The conditions noted are these: Cuevas et al.
For data set [1] the following is noted: in vivo.

Sequence of σ-2 receptor (Q5BJF2 whole entry, species assumed): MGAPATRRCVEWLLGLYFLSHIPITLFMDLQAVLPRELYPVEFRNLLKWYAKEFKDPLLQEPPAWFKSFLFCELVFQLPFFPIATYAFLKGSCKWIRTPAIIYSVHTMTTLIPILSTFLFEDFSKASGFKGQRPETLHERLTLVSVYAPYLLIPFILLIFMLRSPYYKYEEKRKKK

Regarding `CCOc1ccc2nc(SCCN3CCOCC3)[nH]c2c1` [Afobazole, 5-ethoxy-2[2-(morpholine)-ethylthio]benzimidazole], in the data set on σ-1 receptor, the σ-1 receptor activity result was “agonist”. The σ-2 receptor activity entry at σ-2 receptor was “agonist”. Besides, in the data set with muscarinic receptors, the “interaction with muscarinic receptors” value is “does not interact”. The neuroprotection entry with in vitro ischemia model (in vitro ischemia model, 2011) is “provides neuroprotection”. For the same compound, in the data set on in vitro ischemia model (via activation of σ-1 receptors, Katnik et al., 2006, 2011a), the “ischemia-induced Ca2+ overload” value is given as “decrease in ischemia-induced Ca^2+ overload”. Moreover, in data set [1], the brain penetration result is on record as “limited brain penetration” and the half-life result was “short half-life”.
